# Measured values taken from patent US4382922A, “Peptides affecting gonadal function” (The Salk Institute for Biological Studies, priority 1982, dated 1983).
# “And” between values parts separate entries of the source, which are not always exact repeats. Equal entries are not always repeated.
# Test system: dispersed rat pituitary cells
# Type: cell-based
# Details: not given
# Description: The peptides prepared in the foregoing Example I are assayed in vitro using a four-day-old primary culture of dispersed rat pituitary cells and compared with LRF. The levels of LH secreted over a 4-hour period in response to the application of peptides are assayed by specific radioimmunoassay for rat LH. The results of testing are expressed in the tables herebelow: […]
row,SMILES,NANOGRAMS OF LH SECRETED/ml. 4 hr.
1,"CC(C)C[C@H](NC(=O)CNC(=O)[C@H](Cc1ccc(O)cc1)NC(=O)[C@H](CO)NC(=O)[C@H](Cc1c[nH]c2ccccc12)NC(=O)[C@H](Cc1c[nH]cn1)NC(=O)[C@@H]1CCC(=O)N1)C(=O)N[C@@H](CCCNC(=N)N)C(=O)N1CCC[C@H]1C(=O)NCC(N)=O [LRF, p-Glu-His-Trp-Ser-Tyr-Gly-Leu-Arg-Pro-Gly-NH2, reference compound]",898 and 1240 and 1702

# Same assay, conditions: in vitro LH release, LRF = 1; confidence limits in parentheses
row,SMILES,Potency (relative to LRF)
1,"CCNC(=O)[C@@H]1CCCN1C(=O)[C@H](CCCNC(=N)N)NC(=O)[C@H](CC(C)C)NC(=O)[C@@H](Cc1ccc(OC)cc1)NC(=O)[C@H](Cc1ccc(O)cc1)NC(=O)[C@H](CO)NC(=O)[C@H](Cc1c[nH]c2ccccc12)NC(=O)[C@H](Cc1c[nH]cn1)NC(=O)[C@@H]1CCC(=O)N1 [Peptide No. 2, [OCH3 -D-Phe^6, Pro^9 -NEt]-LRF]",130(72-242)
2,"CCNC(=O)[C@@H]1CCCN1C(=O)[C@H](CCCNC(=N)N)NC(=O)[C@H](CC(C)C)NC(=O)[C@@H](Cc1c(C)c(C)c(C)c(C)c1C)NC(=O)[C@H](Cc1ccc(O)cc1)NC(=O)[C@H](CO)NC(=O)[C@H](Cc1c[nH]c2ccccc12)NC(=O)[C@H](Cc1c[nH]cn1)NC(=O)[C@@H]1CCC(=O)N1 [Peptide No. 7, [pentamethyl-D-Phe^6, Pro^9 -NEt]-LRF]",86(50-145)
3,"CCNC(=O)[C@@H]1CCCN1C(=O)[C@H](CCCNC(=N)N)NC(=O)[C@H](CC(C)C)NC(=O)[C@@H](Cc1ccc(OC)cc1)NC(=O)[C@H](Cc1ccc(O)cc1)NC(=O)[C@H](CO)NC(=O)[C@H](Cc1c[nH]c2ccccc12)NC(=O)[C@H](Cc1c[nH]cn1)NC(=O)[C@@H]1CCC(=O)N1 [[OCH3 -D-Phe^6, Pro^9 -NEt]-LRF]",about 130
4,"CCNC(=O)[C@@H]1CCCN1C(=O)[C@H](CCCNC(=N)N)NC(=O)[C@H](CC(C)C)NC(=O)[C@@H](Cc1c(C)c(C)c(C)c(C)c1C)NC(=O)[C@H](Cc1ccc(O)cc1)NC(=O)[C@H](CO)NC(=O)[C@H](Cc1c[nH]c2ccccc12)NC(=O)[C@H](Cc1c[nH]cn1)NC(=O)[C@@H]1CCC(=O)N1 [[pentamethyl-D-Phe^6, Pro^9 -NEt]-LRF]",about 86
5,"CCNC(=O)[C@@H]1CCCN1C(=O)[C@H](CCCNC(=N)N)NC(=O)[C@H](CC(C)C)NC(=O)[C@@H](Cc1ccc([N+](=O)[O-])cc1)NC(=O)[C@H](Cc1ccc(O)cc1)NC(=O)[C@H](CO)NC(=O)[C@H](Cc1c[nH]c2ccccc12)NC(=O)[C@H](Cc1c[nH]cn1)NC(=O)[C@@H]1CCC(=O)N1 [compound 1, [pNO2 -D-Phe^6, Pro^9 -NEt]-LRF]",141 (83-297)
6,CCNC(=O)[C@@H]1CCCN1C(=O)[C@H](CCCNC(=N)N)NC(=O)[C@H](CC(C)C)NC(=O)[C@@H](Cc1ccc(C)cc1)NC(=O)[C@H](Cc1ccc(O)cc1)NC(=O)[C@H](CO)NC(=O)[C@H](Cc1c[nH]c2ccccc12)NC(=O)[C@H](Cc1c[nH]cn1)NC(=O)[C@@H]1CCC(=O)N1 [compound 3],143 (79-268)
7,CCNC(=O)[C@@H]1CCCN1C(=O)[C@H](CCCNC(=N)N)NC(=O)[C@H](CC(C)C)NC(=O)[C@@H](Cc1ccc(Cl)cc1)NC(=O)[C@H](Cc1ccc(O)cc1)NC(=O)[C@H](CO)NC(=O)[C@H](Cc1c[nH]c2ccccc12)NC(=O)[C@H](Cc1c[nH]cn1)NC(=O)[C@@H]1CCC(=O)N1 [compound 4],59 (29-120)
8,CCNC(=O)[C@@H]1CCCN1C(=O)[C@H](CCCNC(=N)N)NC(=O)[C@H](CC(C)C)NC(=O)[C@@H](Cc1ccc(Cl)c(Cl)c1)NC(=O)[C@H](Cc1ccc(O)cc1)NC(=O)[C@H](CO)NC(=O)[C@H](Cc1c[nH]c2ccccc12)NC(=O)[C@H](Cc1c[nH]cn1)NC(=O)[C@@H]1CCC(=O)N1 [compound 5],38 (16-82)
9,CCNC(=O)[C@@H]1CCCN1C(=O)[C@H](CCCNC(=N)N)NC(=O)[C@H](CC(C)C)NC(=O)[C@@H](Cc1ccc(NC(C)=O)cc1)NC(=O)[C@H](Cc1ccc(O)cc1)NC(=O)[C@H](CO)NC(=O)[C@H](Cc1c[nH]c2ccccc12)NC(=O)[C@H](Cc1c[nH]cn1)NC(=O)[C@@H]1CCC(=O)N1 [compound 6],36 (21-69)
10,CCNC(=O)[C@@H]1CCCN1C(=O)[C@H](CCCNC(=N)N)NC(=O)[C@H](CC(C)C)NC(=O)[C@@H](Cc1ccccc1)NC(=O)[C@H](Cc1ccc(O)cc1)NC(=O)[C@H](CO)NC(=O)[C@H](Cc1c[nH]c2ccccc12)NC(=O)[C@H](Cc1c[nH]cn1)NC(=O)[C@@H]1CCC(=O)N1 [compound 8],78 (46-132)
